Consider one compound from patent US20110112014A1 (priority 2008, published 2011).

Molecules are shown by their SMILES. Entries after “also recorded” stand apart in the source; their conditions may differ.

The conditions of data set [1]: cited from earlier work.
The conditions of data set [2]: large doses; cited from earlier work.
A short description of data set [3]: Hydration effect of glycerol solutions by concentration. Format: in vivo, human. As to conditions: also printed as 18 g/l.
The nature of data set [4]: Blood glucose concentration after 2 l of beverage in overnight-fasted male subjects. It is filed as in vivo, human. The conditions noted are these: 8 fasting male subjects; 2 l consumed between -120 and -40 min; FIG. 2. The method, then:
2 l of each beverage were consumed between −120 and −40 min.
After an overnight fast, each subject consumed 2 l of one solution (between −120 min and −40 min in FIG. 1). All subjects had to ingest all types of solution, however in random order. Simultaneously, blood samples were taken and analyzed for plasma glucose and haemoglobin concentration as well as haematocrit. RER measurements confirmed that all subjects were in a fasting state.

For `OCC(O)CO` [glycerol, propane-1,2,3-triol], the Hepatic glucose production result in data set [1] (compared with fasting control conditions without exogenous glycerol load) is “does not increase hepatic glucose production”. In addition, in data set [1] (healthy fasting subjects, glycerol supplementation), the Plasma glucose concentrations result is recorded as “does not increase plasma glucose concentrations”. In data set [2], the Toxicity result was “non-toxic”. In addition, in data set [3], the “Concentration at which appreciable hydration effects are seen” value was “above 0.2 mol/l”. The Blood glucose concentration entry in data set [4] is “does not increase blood glucose levels; also recorded: remained unaffected”.
